The values below come from patent US7022736B2, “Enzyme inhibitors” (Istituto Di Ricerche Di Biologia Molecolare P Angeletti SpA, priority 1998, dated 2006).

This assay has as its target T1, HCV RdRp (NS5B RNA-dependent RNA polymerase) (Hepatitis C virus genotype 1b, UniProt P26663).
T1 construct: The HCV NS5B protein is the viral RdRp; made in house; host or cells: insect cells infected with recombinant baculovirus
In words: Inhibition of hepatitis C virus RdRp (poly(A)/oligo(U), [3H]UTP incorporation). The class given is biochemical. On the procedure:
In initial tests, the compounds were tested to see if they were effective as inhibitors of the RNA-dependent RNA polymerase (RdRp) of hepatitis C virus (HCV). The HCV NS5B protein is the viral RdRp; compounds capable of interfering with the activity of this enzyme are thus expected to block viral replication.
Test for Inhibition of Hepatatis C Virus RdRp
WO96/37619 describes the production of recombinant HCV RdRp from insect cells infected with recombinant baculovirus encoding the enzyme. […] The reference describes a polymerisation assay using poly (A) as a template and oligo (U) as a primer. Incorporation of tritiated UTP is quantified by measuring acid-insoluble radioactivity. The present inventors have employed this assay to screen the various compounds described above as inhibitors of HCV RdRp and other virally encoded polymerases.
Incorporation of radioactive UMP was measured as follows. The standard reaction (100 μl) was carried out in a buffer containing 20 mM tris/HCl pH 7.5, 5 mM MgCl2, 1 mM DTT, 50 mM NaCl, 1 mM EDTA, 2 OU Rnasin (Promega), 0.05% Triton X-100, 1 μCi[^3H] UTP (40 Ci/mmol,NEN), 10 μM UTP and 10 μg/ml poly (A). Oligo (U)12 (1 μg/ml, Genset) was added as a primer. The final NSSB enzyme concentration was 20 nM. After 1 hour incubation at 22° C. the reaction was stopped by adding 100 μl of 20% TCA and applying samples to DE81 filters. The filters were washed thoroughly with 5% TCA containing 1M Na2HPO4/NaH2PO4, pH 7.0, rinsed with water and then ethanol, air dried, and the filter-bound radioactivity was measured in the scintillation counter. By carrying out the reaction in the presence of various concentrations of each of the compounds set out above it was possible to determine IC50 values for each compound with the formula: % residual activity=100/(1+[I]/IC50)^s where [I] is the inhibitor concentration and “s” is the slope of the inhibition curve. Test for Inhibition of Hepatitis B Virus Polymerase

[1] abbreviates: Tables I-VIII, 20 nM NS5B, 1 hour at 22° C., read-out: IC 50 (μM), HCV-polymerase.
Where [2] appears, read: Tables IXa-IXc, unit inferred, read-out: HCV (IC50).

Where two headings read alike, the source gives them in different places. A value given as a limit tells only on which side of the number the result lay.

T1 sequence (P26663 2420-3010): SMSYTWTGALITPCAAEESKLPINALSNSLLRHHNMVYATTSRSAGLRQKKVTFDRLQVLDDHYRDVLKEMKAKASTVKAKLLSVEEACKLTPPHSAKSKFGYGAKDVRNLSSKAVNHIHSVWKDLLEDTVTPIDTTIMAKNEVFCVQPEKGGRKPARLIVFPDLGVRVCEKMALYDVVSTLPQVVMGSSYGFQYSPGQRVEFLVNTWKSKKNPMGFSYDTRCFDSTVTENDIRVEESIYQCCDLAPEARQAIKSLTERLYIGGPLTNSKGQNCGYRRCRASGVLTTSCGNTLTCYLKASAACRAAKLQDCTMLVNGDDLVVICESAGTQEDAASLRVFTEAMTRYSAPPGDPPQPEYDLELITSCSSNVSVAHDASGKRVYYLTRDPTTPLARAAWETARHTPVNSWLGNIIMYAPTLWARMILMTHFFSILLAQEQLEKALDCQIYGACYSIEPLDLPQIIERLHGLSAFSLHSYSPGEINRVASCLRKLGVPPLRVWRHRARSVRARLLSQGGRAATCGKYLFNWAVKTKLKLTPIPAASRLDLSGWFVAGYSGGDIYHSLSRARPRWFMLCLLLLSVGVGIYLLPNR

Turning to `O=C(O)C(O)=CC(=O)c1cccn1Cc1ccc2ccccc2c1` [Example 188], the IC50 under setting [1] is 12.7 µM.
Still for that read-out and setting: to `N#CCCCOc1cccc(OCCCC#N)c1C(=O)C=C(O)C(=O)O` [Example 171] belongs 12 µM.
On the same count and under the same terms, to `Cc1cccc(COc2cccc(C(=O)C=C(O)C(=O)O)c2)c1F` [Example 86] belongs 2.05 µM.
As to `O=C(O)C(O)=CC(=O)C1(c2ccccc2)CCN(S(=O)(=O)c2cc(Cl)c(Cl)cc2Cl)CC1` [Example 251], under setting [1], the IC50 worked out at 21 µM.
Same read-out and setting: to `O=C(O)C(O)=CC(=O)c1cccc(N(Cc2ccccc2)Cc2ccccc2)c1` [Example 41] belongs 28.9 µM.
As to `COc1ccccc1C(=O)C=C(O)C(=O)O` [Example 17], the IC50 under setting [1] is 11.6 µM.
Take `C#CCCCOc1ccccc1C(=O)C=C(O)C(=O)O` [Example 51]: under setting [1], the IC50 was 1.9 µM.
For the compound `O=C(O)C(O)=CC(=O)c1cccc(NS(=O)(=O)c2c(Cl)cc(Cl)cc2Cl)c1` [Example 148], the IC50 under setting [1] was 0.26 µM.
For `O=C(O)C(O)=CC(=O)c1cccc(NC(=O)c2ccccc2)c1` [Example 66], the IC50 by setting is: under setting [1], 11 µM; under setting [2], 11 µM.
As for `O=C(O)C(O)=CC(=O)c1cccc(-c2ccccc2)c1` [Example 3], under setting [1], the IC50 was 27.9 µM.
Same read-out and setting: to `O=C(NCCc1ccccc1)Nc1cccc(C(=O)C=C(O)C(=O)O)c1` [Example 121] belongs 4 µM.
With `O=C(O)C(O)=CC(=O)c1cccc(OCc2ccsc2C(=O)O)c1` [Example 84], the IC50 was determined as 0.95 µM under setting [1] and 0.95 µM under setting [2].
Turning to `O=C(O)C(O)=CC(=O)c1cccc(NS(=O)(=O)c2ccc3ccccc3c2)c1` [Example 114], the IC50 under setting [1] worked out at 0.5 µM.
Still for that read-out and setting: to `CC1=C(C(=O)C=C(O)C(=O)O)CCC1` [Example 255] belongs 16.7 µM; to `O=C(O)C(O)=CC(=O)c1cccc(OCc2cccnc2)c1` [Example 71], 10.6 µM.
Regarding `N#Cc1ccccc1COc1ccccc1C(=O)C=C(O)C(=O)O` [Example 65], under setting [1], the IC50 was found to be 45 µM.
Still for that read-out and setting: to `O=C(C=C(O)C(=O)O)CC1CCCCC1` [Example 257] belongs 50 µM; to `O=C(O)C(O)=CC(=O)c1cccn1-c1ccc(F)cc1` [Example 177], 25 µM; to `O=C(O)C(O)=CC(=O)c1ccsc1Cc1cccs1` [Example 227], 15 µM.
As to `O=C(O)C(O)=CC(=O)c1cccn1CCCCOc1ccccc1` [Example 189], the IC50 under setting [1] turned out to be 28 µM.
For the compound `CCCCCCCOc1ccccc1C(=O)C=C(O)C(=O)O` [Example 31], the IC50 under setting [1] came out at 18 µM.
As to `O=C(O)C(O)=CC(=O)c1cccc(NS(=O)(=O)c2ccc(Cl)c(Cl)c2Cl)c1` [Example 125], the IC50 under setting [1] was found to be 0.17 µM.
On the same count and under the same terms, to `Cc1ccsc1C(=O)C=C(O)C(=O)O` [Example 191] belongs 10 µM; to `CCCOc1ccccc1C(=O)C=C(O)C(=O)O` [Example 29], 3.9 µM; to `O=C(O)C(O)=CC(=O)c1ccsc1Cc1ccccc1Cl` [Example 233], 9.2 µM.
Same read-out and setting: to `O=C(O)C(O)=CC(=O)c1cccn1Cc1cccc(F)c1` [Example 181] belongs 30 µM.
Still for that read-out and setting: to `O=C(O)C(O)=CC(=O)c1cccc(NS(=O)(=O)c2cc(Cl)c(Oc3ccc([N+](=O)[O-])cc3Cl)c(Cl)c2)c1` [Example 135] belongs 21 µM; to `O=C(O)C(O)=CC(=O)c1ccsc1` [Example 222], 4 µM.
Regarding `Cc1ccccc1COc1cccc(C(=O)C=C(O)C(=O)O)c1` [Example 91], under setting [1], the IC50 came out at 6.2 µM.
Take `Cc1cc(C)c(C(=O)C=C(O)C(=O)O)s1` [Example 192]: the IC50 under setting [1] came to 8.2 µM and the IC50 under setting [2] is 8.2 µM.
`O=C(O)C(O)=CC(=O)c1cccc(Cc2cccc(Br)c2)c1` [Example 48]: the IC50 under setting [1] is 22 µM.
In the case of `O=C(O)C(O)=CC(=O)c1ccsc1Cc1cccc(Cl)c1` [Example 232], the IC50 under setting [1] amounted to 11.8 µM.
The same measure, in the same setting: to `O=C(O)C(O)=CC(=O)c1cccc(OCc2ccccn2)c1` [Example 73] belongs 5.6 µM; to `COc1cccc(COc2cccc(C(=O)C=C(O)C(=O)O)c2)c1` [Example 92], 1 µM; to `N#Cc1ccccc1Cn1cccc1C(=O)C=C(O)C(=O)O` [Example 184], 6.7 µM.
Still for that read-out and setting: to `O=C(O)C(O)=CC(=O)c1cccn1Cc1ccccc1Cl` [Example 186] belongs 24 µM; to `Cc1cc(C(=O)C=C(O)C(=O)O)c(C)o1` [Example 237], 14 µM; to `O=C(O)C(O)=CC(=O)c1ccsc1Cc1ccccc1F` [Example 230], 8.6 µM.
With `O=C(O)C(O)=CC(=O)c1cccc(OC/C=C/c2ccccc2)c1` [Example 83], under setting [1], the IC50 was found to be 9.4 µM.
Take `Cc1ccc(C(=O)CC(=O)C(=O)O)o1` [Example 217]: the IC50 under setting [1] was found to be 58 µM.
Still for that read-out and setting: to `O=C(O)C(O)=CC(=O)c1cccc(NS(=O)(=O)c2cc(Cl)c(Cl)cc2Cl)c1` [Example 119] belongs 0.049 µM; to `O=C(O)C(O)=CC(=O)C1(c2ccccc2)CCN(S(=O)(=O)c2cccc(Cl)c2)CC1` [Example 246], 18 µM.
Consider `O=C(Nc1ccccc1)Nc1cccc(C(=O)C=C(O)C(=O)O)c1` [Example 80], for which the IC50 amounted to 3 µM under setting [1] and 3 µM under setting [2].
Turning to `O=C(O)C(O)=CC(=O)c1ccc(N2CCc3ccccc3C2)s1` [Example 215], the IC50 under setting [1] turned out to be 15.3 µM.
On the same count and under the same terms, to `O=C(O)C(O)=CC(=O)c1csc2ccccc12` [Example 236] belongs 26 µM.
Turning to `COc1cccc(OC)c1C(=O)C=C(O)C(=O)O` [Example 172], the IC50 under setting [1] is > 50 µM.
As for `O=C(O)C(O)=CC(=O)c1ccc(N2CCCC2)s1` [Example 195], the IC50 under setting [1] is 11.1 µM.
The same measure, in the same setting: to `O=C(O)C(O)=CC(=O)c1ccccc1/C=C/c1ccccc1` [Example 55] belongs 10.8 µM.
On the same count and under the same terms, to `N#Cc1cccc(Cn2ccc(C(=O)C=C(O)C(=O)O)c2)c1` [Example 220] belongs 4.6 µM.
For the compound `O=C(O)C(O)=CC(=O)c1cccc(Cc2cc(Br)cc(Br)c2)c1` [Example 49], the IC50 reads like this: under setting [1], 32 µM; under setting [2], 32 µM.
As for `O=C(O)C(O)=CC(=O)c1cccc(OCc2ccc(C(=O)O)cc2Cl)c1` [Example 100], the IC50 under setting [1] came out at 7.8 µM.
As to `O=C(O)C(O)=CC(=O)c1cccc(OCc2ccc(-c3ccccc3)cc2)c1` [Example 96], the IC50 under setting [1] is 50 µM.
On the same count and under the same terms, to `O=C(O)C(O)=CC(=O)c1cccc(OCc2ccccc2Br)c1` [Example 89] belongs 3.3 µM.
`N#Cc1cccc(Cl)c1COc1cc(O)cc(C(=O)C=C(O)C(=O)O)c1` [Example 160]: the IC50 reads like this: under setting [1], 0.1 µM; under setting [2], 0.1 µM.
For `N#Cc1ccc(C(=O)Nc2cccc(C(=O)C=C(O)C(=O)O)c2)cc1` [Example 68], under setting [1], the IC50 stood at 30 µM.
As to `CC(C)(C)C(=O)C=C(O)C(=O)O` [Example 241], the IC50 under setting [1] turned out to be 37 µM.
Still for that read-out and setting: to `O=C(O)C(O)=CC(=O)c1cccc(OCc2ccccc2-c2ccccc2)c1` [Example 97] belongs 2.8 µM; to `O=C(O)C(O)=CC(=O)c1ccccc1OCC1CCCCC1` [Example 9], 51 µM.
Still for that read-out and setting: to `O=C(O)C(O)=CC(=O)c1cc(Cc2ccccc2)ccc1F` [Example 152] belongs 20 µM.
In the case of `O=C(O)C(O)=CC(=O)c1cc(-c2cccnc2)cs1` [Example 197], the IC50 under setting [1] was 11 µM.
The same measure, in the same setting: to `O=C(O)C(O)=CC(=O)c1cccc(NS(=O)(=O)c2ccc(-c3ccccc3)cc2)c1` [Example 124] belongs 28 µM.
On the same count and under the same terms, to `O=C(O)C(O)=CC(=O)c1cccc(NS(=O)(=O)c2cc(Cl)cc(Cl)c2O)c1` [Example 127] belongs 0.3 µM; to `O=C(O)C(O)=CC(=O)c1cccc(NCc2cccc(C(=O)O)c2)c1` [Example 79], 6 µM; to `O=C(O)/C(O)=C/C(=O)C1(Cc2ccc(Cl)cc2)CCCN(S(=O)(=O)c2ccc(Br)cc2)C1` (centres unmarked) [Example 252], 61 µM.
The same measure, in the same setting: to `CC1=CCC(C(=O)C=C(O)C(=O)O)CC1` (centres unmarked) [Example 242] belongs 12.8 µM; to `N#CCCCOc1ccc(-c2ccccc2)cc1C(=O)C=C(O)C(=O)O` [Example 58], 13.6 µM; to `O=C(O)C(O)=CC(=O)c1cccn1CCCc1ccc(F)cc1` [Example 187], 36 µM.
On to `N#Cc1c(Cl)cccc1COc1cccc(C(=O)C=C(O)C(=O)O)c1` [Example 109], for which the IC50 is, setting by setting: under setting [1], 0.17 µM; under setting [2], 0.17 µM.
Take `O=C(O)C(O)=CC(=O)c1ccc(N2CCCCC2)s1` [Example 200]: under setting [1], the IC50 worked out at 8.2 µM.
Still for that read-out and setting: to `O=C(O)C(O)=CC(=O)c1cccc(NCc2ccccc2)c1` [Example 12] belongs 16.7 µM.
